assay: Induction of nuclear translocation of human GFP-tagged NFATc1 expressed in virus infected primary human skeletal muscle myoblasts after 3 hrs by DAPI staining based assay

| SMILES | EC50 |
| --- | --- |
| COc1cccc2c(-c3ccnc(N)n3)c[nH]c12 | 9.8 µM |
| c1ccc2c(-c3c[nH]c4cnccc34)ccnc2c1 | 43 µM |
| c1cc(-c2c[nH]c3cnccc23)ccn1 | 2.98 µM |
| COCCn1cc(-c2ccncc2)c2ccncc21 | 6.9 µM |
| c1cc(-c2cn(CCCN3CCOCC3)c3cnccc23)ccn1 | 6.96 µM |
| Fc1ccc(Cn2cc(-c3ccncc3)c3ccncc32)cc1 | 7.58 µM |
| c1cc(-c2cn(CCC3CC3)c3cnccc23)ccn1 | 1.59 µM |
| CC(C)n1cc(-c2ccncc2)c2ccncc21 | 0.31 µM |
| Fc1cc(-c2c[nH]c3cnccc23)ccn1 | 4.85 µM |
| Cn1cc(-c2ccncc2)c2ccncc21 | 2.21 µM |
| Nc1nccc(-c2c[nH]c3cnccc23)n1 | 4.8 µM |
| Clc1cnccc1-c1c[nH]c2cnccc12 | 5.31 µM |
| N#Cc1cccc2c(-c3ccnc(N)n3)c[nH]c12 | 21.7 µM |
| Cc1cc(-c2c[nH]c3cnccc23)ccn1 | 20.8 µM |
